Laboratory results published in EP0577932A2, “Development of a mechanism-based screen to identify androgen receptor agonists and antagonists” (AMERICAN CYANAMID COMPANY, priority 1992, dated 1994).

Biological target: T1, mouse androgen receptor (Mus musculus, UniProt P19091)
T1 sequence (P19091 1-899): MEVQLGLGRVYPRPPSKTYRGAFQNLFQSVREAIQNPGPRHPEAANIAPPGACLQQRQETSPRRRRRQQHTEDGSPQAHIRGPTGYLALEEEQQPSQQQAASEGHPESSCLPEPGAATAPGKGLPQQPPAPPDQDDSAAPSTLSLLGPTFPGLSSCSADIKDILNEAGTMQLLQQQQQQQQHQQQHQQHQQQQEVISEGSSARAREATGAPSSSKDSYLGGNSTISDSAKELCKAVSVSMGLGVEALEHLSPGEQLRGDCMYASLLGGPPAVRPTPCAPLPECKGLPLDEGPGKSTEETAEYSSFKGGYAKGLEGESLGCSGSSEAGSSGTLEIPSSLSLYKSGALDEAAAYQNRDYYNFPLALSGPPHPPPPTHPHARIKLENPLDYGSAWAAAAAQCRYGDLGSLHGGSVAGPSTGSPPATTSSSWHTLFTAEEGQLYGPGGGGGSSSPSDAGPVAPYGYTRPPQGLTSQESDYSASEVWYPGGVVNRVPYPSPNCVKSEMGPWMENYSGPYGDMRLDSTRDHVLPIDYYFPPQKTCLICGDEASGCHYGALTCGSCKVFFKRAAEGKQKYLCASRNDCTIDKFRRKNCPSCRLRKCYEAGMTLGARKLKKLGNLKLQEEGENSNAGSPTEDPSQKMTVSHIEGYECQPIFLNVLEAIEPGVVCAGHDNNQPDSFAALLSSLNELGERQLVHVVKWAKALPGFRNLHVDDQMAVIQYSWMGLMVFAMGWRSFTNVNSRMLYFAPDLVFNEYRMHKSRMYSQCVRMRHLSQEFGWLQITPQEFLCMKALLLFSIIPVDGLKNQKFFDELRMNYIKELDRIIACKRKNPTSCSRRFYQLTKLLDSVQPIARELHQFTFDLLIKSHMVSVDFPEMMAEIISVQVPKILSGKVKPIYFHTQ
Details: compete for binding sites only at high concentrations
Method: Bound and free steroids are separated by dextran-coated charcoal (0.5% Norit A and 0.05% dextran). Specific binding is determined by subtracting non-specific from total binding.

CC(C)(O)C(=O)Nc1ccc([N+](=O)[O-])c(C(F)(F)F)c1 [hyroxyl-flutamide]
affinity for the androgen receptor (in words): lower affinity
